Seven compounds from patent publication US20050014765A1, “Aryl-heteroaromatic products, compositions comprising them and use” (Aventis Pharma S.A., priority 2003, published 2005) can be followed below.

Data set [1] addresses T1, Tubulin purified from pig brains (Sus scrofa, UniProt P02550+P02554).
T1 construct: Tubulin is purified from pig brains according to published methods; from tissue; host or cells: pig brain
Nature of the data set: Assessment of the inhibition of tubulin polymerization (turbidimetry at 350 nm). The class given is biochemical. To be noted: concentration which inhibits the rate of polymerization by 50%; tubulin 1 mg/ml, 37° C.; read-out: Inhibition of tubulin polymerization IC 50. In a few lines:
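Pig brain tubulin, >95% pure after polymerization/depolymerization cycles and phosphocellulose removal of MAPs, used at 10 μm in MES pH 6.8/30% glycerol buffer with 1 mM GTP and 6 mM MgCl2. Compounds at 0.5–10 μm were added before a 6→37 °C shift triggered assembly, followed by turbidity at 350 nm. IC50 is the concentration halving polymerization rate.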

A further data set concerns HCT116 cells. As to the kind of experiment: Inhibition of proliferation of the HCT116 human colon tumor line ([14C]-thymidine incorporation). Format: cell-based. To be noted: HCT-116, 48 hours incubation at 37° C., read-out: Inhibition of HCT116 proliferation IC 50. In a few lines:
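HCT116 cells at 5000/well in DMEM with 10% fetal calf serum were treated with compounds up to 10 μM (DMSO ≤0.5%) plus [14C]-thymidine 0.1 μCi/well for 48 h at 37 °C. IC50 is the concentration halving incorporated radioactivity against untreated control.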

T1 sequence (P02550 whole entry): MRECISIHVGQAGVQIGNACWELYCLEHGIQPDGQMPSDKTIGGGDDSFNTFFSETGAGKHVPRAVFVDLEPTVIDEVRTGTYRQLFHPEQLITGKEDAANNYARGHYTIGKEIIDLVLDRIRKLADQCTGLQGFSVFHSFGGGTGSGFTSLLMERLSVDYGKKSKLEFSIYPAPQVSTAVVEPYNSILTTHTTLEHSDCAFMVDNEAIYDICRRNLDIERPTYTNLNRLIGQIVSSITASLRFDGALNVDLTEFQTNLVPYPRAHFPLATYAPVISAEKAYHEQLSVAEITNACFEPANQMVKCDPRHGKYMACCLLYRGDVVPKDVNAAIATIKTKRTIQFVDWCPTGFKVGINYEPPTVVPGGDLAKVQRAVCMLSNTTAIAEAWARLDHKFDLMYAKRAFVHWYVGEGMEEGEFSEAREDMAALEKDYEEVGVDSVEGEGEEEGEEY
T1 sequence (P02554 whole entry): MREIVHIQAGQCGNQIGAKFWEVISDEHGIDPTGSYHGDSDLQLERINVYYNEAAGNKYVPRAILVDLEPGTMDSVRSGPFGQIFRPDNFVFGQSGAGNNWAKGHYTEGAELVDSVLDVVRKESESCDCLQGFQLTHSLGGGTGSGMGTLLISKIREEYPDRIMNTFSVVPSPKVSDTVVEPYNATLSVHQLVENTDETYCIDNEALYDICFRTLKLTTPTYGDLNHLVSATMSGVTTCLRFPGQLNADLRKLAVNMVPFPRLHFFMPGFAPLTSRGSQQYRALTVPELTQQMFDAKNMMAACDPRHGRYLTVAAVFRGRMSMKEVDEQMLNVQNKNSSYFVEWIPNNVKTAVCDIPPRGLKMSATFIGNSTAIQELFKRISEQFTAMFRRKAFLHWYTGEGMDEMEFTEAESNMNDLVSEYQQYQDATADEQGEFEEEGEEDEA

Usually melting point stands for the temperature of the solid-liquid transition. `NC(=O)c1cccc(N2CCN(C(=O)c3nc(O)[nH]c3-c3ccccc3)CC2)c1` [Example 51, 3-[4-(2-Hydroxy-4-phenyl-1H-imidazol-5-yl-carbonyl)piperazin-1-yl]benzamide] registered a melting point of 202 °C. Also, in data set [1], the IC50 turned out to be 500 nM. Moreover, in the data set on HCT116 cells, the IC50 was 1360 nM.

The compound `N#Cc1cccc(N2CCN(C(=O)c3[nH]c(S)nc3-c3ccccc3)CC2)c1` [Example 52, 3-[4-(2-Mercapto-4-phenyl-1H-imidazol-5-yl-carbonyl)piperazin-1-yl]-benzonitrile] yielded a melting point of 247 °C. The IC50 in data set [1] came to 400 nM. Besides, the IC50 in the data set on HCT116 cells came out at 100 nM.

Take `COc1cc(OC)cc(N2CCN(C(=O)c3ccn(CCO)c3-c3ccccc3)CC2)c1` [Example 53, [4-(3,5-Dimethoxyphenyl)piperazin-1-yl][1-(2-hydroxyethyl)-2-phenyl-1H-pyrrol-3-yl]methanone]: the melting point is 157 °C. For the same compound, the IC50 in data set [1] amounted to 810 nM. In addition, the IC50 with HCT116 cells turned out to be 46 nM.

Take `O=C(c1[nH]c(O)nc1-c1ccccc1)N1CCN(c2cccc(CO)c2)CC1` [Example 57, [4-(3-Hydroxymethylphenyl)piperazin-1-yl](2-hydroxy-4-phenyl-1H-imidazol-5-yl)methanone]: the melting point was determined as 173 °C. For the same compound, the IC50 in data set [1] is 795 nM. The IC50 in the data set with HCT116 cells came out at 17 nM.

Consider `N#Cc1cccc(N2CCN(C(=O)c3cc[nH]c3-c3ccccc3)CC2)c1` [Example 74, 3-[4-(2-Phenyl-1H-pyrrol-3-ylcarbonyl)piperazin-1-yl]benzonitrile], for which the melting point worked out at 80 °C. Besides, in data set [1], the IC50 stood at 3050 nM. In the data set with HCT116 cells, the IC50 worked out at 52 nM.

Compound `N#Cc1cccc(N2CCN(C(=O)c3[nH]c(O)nc3-c3ccccc3)CC2)c1` [Example 75, 3-[4-(2-Hydroxy-4-phenyl-1H-imidazol-5-ylcarbonyl)piperazin-1-yl]-benzonitrile] displayed a melting point of 198 °C. For the same compound, in data set [1], the IC50 is 1010 nM. Besides, in the data set on HCT116 cells, the IC50 worked out at 11.5 nM.

Consider `N#Cc1cccc(N2CCN(C(=O)c3ccn(CCO)c3-c3ccccc3)CC2)c1` [Example 81, 3-[4-(1-Hydroxyethyl-2-phenyl-1H-pyrrol-3-ylcarbonyl)piperazin-1-yl]-benzonitrile], for which the melting point is 158 °C. For the same compound, the IC50 in data set [1] worked out at 2400 nM. For the same compound, the IC50 with HCT116 cells came out at 307 nM.
